According to US9402839B2, “Selective targeting agents for mitochondria” (University of Pittsburgh—Of the Commonwealth System of …, priority 2006, dated 2016):

How the values were obtained:
caspases 3 and 7 = experiment: Caspases 3 and 7 activity assay in rat gut mucosa homogenate after hemorrhagic shock; format: in vivo; settings: intraluminal 10 μM versus vehicle
Method: (§1) After 2 h of shock, the animals were euthanized with an intracardiac KCl bolus injection. The ileum was rapidly excised from the ileocecal valve to the most proximal gut segment. The tips of each segment were discarded. In order to assay caspases 3 and 7 activity and phospholipids peroxidation, mucosa samples were collected from gut segments immediately after hemorrhage and stored at −80° C. For permeability measurements, each segment was converted into an everted gut sac, as previously described by Wattanasirichaigoon et al., see Wattanasirichaigoon, S. et al., Effect of mesenteric ischemia and reperfusion or hemorrhagic shock on intestinal mucosal permeability and ATP content in rats, SHOCK, 12:127-133 (1999).
Caspases 3 and 7 activity assay. Caspases 3 and 7 activity was measured using a commercially available assay kit, CASPASE GLO™ 3/7 assay kit (PROMEGA, Madison, Wis.). […] At the end of incubation period, the luminescence of each sample was measured using a plate reading chemiluminometer (ML1000, DYNATECH LABORATORIES, Horsham, Pa.). Activity of caspases 3 and 7 was expressed as luminescence intensity (arbitrary units per mg protein). Protein concentrations were determined using the BIORAD assay (BIO-RAD LABORATORIES, Inc., Hercules, Calif.). […]

[1] = test system: Caco-2BBe human enterocyte-like monolayers; experiment: Permeability of Caco-2 monolayers exposed to menadione (FD4 clearance); format: cell-based; settings: 10 μM apical, menadione 50 μM, 6 hours
Method: Cells. Caco-2BBe human enterocyte-like epithelial cells were obtained from the AMERICAN TYPE CULTURE COLLECTION (Manassas, Va.). Cells were routinely maintained at 37° C. in under a humidified atmosphere containing 8% CO2 in air. The culture medium was DMEM supplemented with 10% FBS, non-essential amino acids supplement (SIGMA-ALDRICH catalogue #M7145), sodium pyruvate (2 mM), streptomycin (0.1 mg/ml), penicillin G (100 U/ml) and human transferrin (0.01 mg/ml). The culture medium was changed 3 times per week.
Measurement of permeability of Caco-2 monolayers. Caco-2BBe cells were plated at a density of 5×10^4 cells/well on permeable filters (0.4 μm pore size) in 12-well bicameral chambers (TRANSWELL, COSTAR, Corning, N.Y.).
Briefly, the medium on the basolateral side was replaced with control medium or medium containing menadione (50 μM final). Medium containing FD4 (25 mg/ml) was applied to the apical chamber. In some cases, one of the gramicidin S-based compounds, XJB-5-131, also was added to the apical side at final concentrations of 0.1, 1, 10 or 100 μM. […] Permeability of the monolayers was expressed as a clearance (pL·h^−1·cm^−2), see Han, X. et al., Proinflammatory cytokines cause NO dependent and independent changes in expression and localization of tight junction proteins in intestinal epithelial cells, SHOCK 19:229-237 (2003). […]

[2] = test system: phospholipids in intestinal mucosa; experiment: Assay for peroxidation of phospholipids in gut mucosa after hemorrhagic shock; format: in vivo, rat; settings: intraluminal 10 μM, 2 h HS
Method: as §1
Assay for peroxidation of phospholipids. Gut mucosal samples were homogenized. Lipids were extracted from homogenates using the Folch procedure, see M. Lees and G. H. Sloan-Stanley, A simple method for isolation and purification of total lipids from animal tissue, J. BIOL. CHEM. 226:497-509 (1957), and resolved by 2D HPTLC (High Performance Thin Layer Chromatography) as previously described, see Kagan, V. E. et al., A role for oxidative stress in apoptosis: Oxidation and externalization of phosphatidylserine is required for macrophage clearance of cell undergoing Fas-mediated apoptosis, J. IMMUMOL. 169:487-489 (2002). Spots of phospholipids were scraped from HPTLC plates and phospholipids were extracted from silica. Lipid phosphorus was determined by a micro-method, see Bottcher, C. J. F. et al., A rapid and sensitive sub-micro phosphorus determination, ANAL. CHIM. ACTA 24: 203-204 (1961).
Oxidized phospholipids were hydrolyzed by pancreatic phospholipase A2 (2 U/μl) in 25 mM phosphate buffer containing 1 mM CaCl2, 0.5 mM EDTA and 0.5 mM sodium dodecyl sulfate (SDS) (pH 8.0, at room temperature for 30 min). Fatty acid hydroperoxides formed were determined by fluorescence HPLC of resorufin stoichiometrically formed during their microperoxidase 11-catalized reduction in presence of Amplex Red (for 40 min at 4° C.) (8). Fluorescence HPLC (ECLIPSE XDB-C18 column, 5 μm, 150×4.6 mm, mobile phase was composed of 25 mM disodium phosphate buffer (pH 7.0)/methanol (60:40 v/v); excitation wavelength 560 nm, emission wavelength 590 nm) was performed on a SHIMADZU LC-100AT HPLC system equipped with fluorescence detector (RF-10Ax1) and autosampler (SIL-10AD).
In the subsequent series of in vivo studies, the affect of intraluminal XJB-5-131 on hemorrhage-induced peroxidation of phospholipids in intestinal mucosa was examined. […] In a preferred embodiment, 0.3 mL of test solution filled the lumen of each ileal compartment. […]

SMILES: CC(C)C[C@@H](/C=C/[C@H](Cc1ccccc1)C(=O)N1CCC[C@H]1C(=O)N[C@H](C(=O)N[C@@H](CCCNC(=O)OCc1ccccc1)C(=O)NC1CC(C)(C)N([O])C(C)(C)C1)C(C)C)NC(=O)OC(C)(C)C [XJB-5-131]
- caspase 3 and 7 activity in ileal mucosa after hemorrhagic shock (caspases 3 and 7): significantly decreased
- protection against menadione-induced hyperpermeability [1]: significant protection
- hemorrhage-induced peroxidation of cardiolipin (CL) [2]: significantly ameliorated
- peroxidation of phosphatidylcholine (PC) [2]: no effect
- peroxidation of phosphatidylethanolamine (PE) [2]: small effect
- peroxidation of phosphatidylserine (PS) [2]: no effect
